Reference: article PMC10178506, “Chemical and Biological Evaluation of Novel 1H-Chromeno[3,2-c]pyridine Derivatives as MAO Inhibitors Endowed with Potential Anticancer Activity” (International Journal of Molecular Sciences, 2023)

Columns and labels:
Assay in all cases: biochemical
[1] = target: T1, human recombinant MAO A (Homo sapiens, UniProt P21397); format: biochemical; details: read-out: hMAO-A % inhibition at 10 μM
T1 construct: purchased Sigma Aldrich (Milan, Italy); host or cells: baculovirus-infected insect cells
T1 sequence (P21397 1-527): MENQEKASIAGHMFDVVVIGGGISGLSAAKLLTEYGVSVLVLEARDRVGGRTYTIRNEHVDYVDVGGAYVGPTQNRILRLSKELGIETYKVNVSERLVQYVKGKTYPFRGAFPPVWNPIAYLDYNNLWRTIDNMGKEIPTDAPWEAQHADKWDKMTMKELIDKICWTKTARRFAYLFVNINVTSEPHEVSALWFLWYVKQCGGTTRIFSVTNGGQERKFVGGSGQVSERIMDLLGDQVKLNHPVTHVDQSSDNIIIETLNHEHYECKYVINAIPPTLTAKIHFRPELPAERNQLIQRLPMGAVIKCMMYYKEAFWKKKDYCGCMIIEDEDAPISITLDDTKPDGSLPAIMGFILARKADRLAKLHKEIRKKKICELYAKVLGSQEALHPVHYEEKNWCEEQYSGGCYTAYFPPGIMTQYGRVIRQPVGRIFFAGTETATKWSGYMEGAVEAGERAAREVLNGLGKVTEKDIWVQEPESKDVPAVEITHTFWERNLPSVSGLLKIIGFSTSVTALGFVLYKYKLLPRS
Protocol: (§1) Human isoforms of MAOs (from baculovirus-infected insect cells) and ChEs (human recombinant AChE and BChE from human serum), purchased from Sigma Aldrich (Milan, Italy), were used for inhibition assays. Experiments were performed in 96-well plates (Greiner Bio-One, Kremsmünster, Austria) on the Infinite M1000 Pro plate reader (Tecan, Cernusco s.N., Italy), using already published protocols.
After the addition of human recombinant MAO A (250 U/mg) or MAO B (59 U/mg) and a further 30 min of incubation, NaOH was added, and the fluorescence read at 310/400 nm excitation/emission wavelength. […] IC50 is expressed as mean ± SD of three independent measurements, each one performed in duplicate. For the kinetic study on the inhibition mechanism of MAO B, three diverse scalar concentrations of the inhibitor and seven concentrations of kynuramine were used.
(§2) The IC50 values, Michaelis–Menten curve fitting and inhibition constant (Ki) were calculated by nonlinear regression, using Prism software.

[2] = target: T2, human recombinant MAO B (Homo sapiens, UniProt P27338); format: biochemical; details: for inhibition at 10 µM: read-out: hMAO-B % inhibition at 10 μM
T2 construct: purchased Sigma Aldrich (Milan, Italy); host or cells: baculovirus-infected insect cells
T2 sequence (P27338 1-520): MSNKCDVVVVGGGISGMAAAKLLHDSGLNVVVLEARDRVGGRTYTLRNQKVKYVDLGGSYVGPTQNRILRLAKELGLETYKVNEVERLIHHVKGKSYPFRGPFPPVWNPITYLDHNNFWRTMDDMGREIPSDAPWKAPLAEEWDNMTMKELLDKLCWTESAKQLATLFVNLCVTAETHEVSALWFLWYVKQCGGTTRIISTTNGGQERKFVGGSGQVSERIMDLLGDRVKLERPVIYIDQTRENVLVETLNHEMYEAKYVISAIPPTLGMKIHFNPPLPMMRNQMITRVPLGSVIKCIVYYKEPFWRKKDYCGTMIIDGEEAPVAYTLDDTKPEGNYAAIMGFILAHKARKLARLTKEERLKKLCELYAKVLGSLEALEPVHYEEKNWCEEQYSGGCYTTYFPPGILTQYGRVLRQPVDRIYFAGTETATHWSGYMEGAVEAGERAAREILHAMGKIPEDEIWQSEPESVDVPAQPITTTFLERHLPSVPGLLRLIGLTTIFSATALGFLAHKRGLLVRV

[3] = target: T3, human recombinant AChE (Homo sapiens, UniProt P22303); details: for inhibition at 10 µM: read-out: hAChE % inhibition at 10 μM
T3 construct: purchased Sigma Aldrich (Milan, Italy)
Protocol: as §1
(§3) The inhibition of human recombinant AChE or BChE from human serum was determined by applying Ellman’s spectrophotometric method as described in previously reported protocols. The AChE activity was determined in an assay solution containing AChE (0.09 U/mL), 5,5′-dithiobis(2-nitrobenzoic acid) (i.e., the Ellman’s reagent, 0.33 mM), the test compound (10 μM concentration, or seven scalar concentrations for compounds achieving > 60% enzyme inhibition at 10 μM), in 0.1 M PBS pH 8.0. […] The BChE inhibitory activity was similarly determined by using BChE (0.09 U/mL) and butyrylthiocholine iodide (5 μM) as the substrate.
as §2

[4] = target: T4, BChE from human serum (Homo sapiens, UniProt P06276); details: for inhibition at 10 µM: read-out: hBChE % inhibition at 10 μM; for inhibition at 10 µM / hBChE % inhibition at 10 μM: 10 μM concentration, mean ± S.D. (n = 3), n.i. = no inhibition at 10 μM
T4 construct: ChEs (human recombinant AChE and BChE from human serum), purchased from Sigma Aldrich (Milan, Italy); purchased Sigma Aldrich (Milan, Italy); host or cells: human serum (natural source)
Protocol: as §1, §3, §2

T3 sequence (P22303 32-614): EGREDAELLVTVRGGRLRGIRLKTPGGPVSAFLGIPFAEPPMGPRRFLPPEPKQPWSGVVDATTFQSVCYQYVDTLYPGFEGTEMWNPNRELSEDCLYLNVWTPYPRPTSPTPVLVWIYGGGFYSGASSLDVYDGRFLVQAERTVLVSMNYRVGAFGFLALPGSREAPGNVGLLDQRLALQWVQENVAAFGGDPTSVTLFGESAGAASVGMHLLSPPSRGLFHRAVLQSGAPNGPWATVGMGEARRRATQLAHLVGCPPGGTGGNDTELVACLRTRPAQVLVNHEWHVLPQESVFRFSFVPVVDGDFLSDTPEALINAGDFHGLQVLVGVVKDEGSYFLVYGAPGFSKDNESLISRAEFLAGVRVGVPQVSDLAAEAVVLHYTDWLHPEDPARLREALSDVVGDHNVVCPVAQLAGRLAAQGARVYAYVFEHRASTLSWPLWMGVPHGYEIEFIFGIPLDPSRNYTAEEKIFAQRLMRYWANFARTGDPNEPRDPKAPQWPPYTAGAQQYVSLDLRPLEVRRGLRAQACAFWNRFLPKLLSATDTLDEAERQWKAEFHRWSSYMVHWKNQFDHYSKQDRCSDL
T4 sequence (P06276 29-602): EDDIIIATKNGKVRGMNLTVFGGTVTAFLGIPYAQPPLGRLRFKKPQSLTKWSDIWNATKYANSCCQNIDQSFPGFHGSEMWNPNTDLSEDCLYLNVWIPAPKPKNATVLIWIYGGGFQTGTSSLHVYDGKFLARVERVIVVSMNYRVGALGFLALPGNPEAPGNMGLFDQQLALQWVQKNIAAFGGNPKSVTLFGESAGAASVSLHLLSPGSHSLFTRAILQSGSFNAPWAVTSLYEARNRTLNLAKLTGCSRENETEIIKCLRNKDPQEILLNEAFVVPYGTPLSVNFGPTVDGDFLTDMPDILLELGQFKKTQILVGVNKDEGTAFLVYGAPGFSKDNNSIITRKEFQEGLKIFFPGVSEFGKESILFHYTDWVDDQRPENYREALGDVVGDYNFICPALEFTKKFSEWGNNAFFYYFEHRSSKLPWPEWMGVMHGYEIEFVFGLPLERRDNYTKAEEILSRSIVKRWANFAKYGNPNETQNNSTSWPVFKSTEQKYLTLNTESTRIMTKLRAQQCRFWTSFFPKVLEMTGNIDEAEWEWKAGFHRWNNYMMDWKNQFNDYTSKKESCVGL

SMILES | inhibition at 10 µM [1] | MAO B/A selectivity ([2]; from MAO B and MAO A inhibition data) | IC50 ([2]; hMAO-B IC50, mean ± S.D., determined for compounds with more than 60% inhibition at 10 μM) | IC50 ([3]; mean ± S.D., determined for compounds with more than 60% inhibition at 10 μM, read-out: hAChE IC50) | IC50 ([4]; mean ± S.D., determined for compounds with more than 60% inhibition at 10 μM, read-out: hBChE IC50) | inhibition at 10 µM [2] | inhibition at 10 µM [3] | inhibition at 10 µM [4] | hBChE % inhibition at 10 μM [4] | hAChE % inhibition at 10 μM [3]
CN1C=Cc2oc3ccccc3c(=O)c2C1C#Cc1ccccc1 (stereo not shown) [3a, 2-Methyl-1-(phenylethinyl)-1H-chromeno[3,2-c]pyridine-10(2H)-one] | 35% | more than twentyfold | 0.51 ± 0.021 µM | 6.79 ± 0.42 µM | 8.42 ± 0.25 µM |  |  |  |  | 
O[C@@H]1c2ccccc2O[C@]2(O)CCN(Cc3ccccc3)C[C@@H]12 (relative stereo) [8e, (4aR*,10S*,10aS*)-2-Benzyl-1,2,3,4,10,10a-hexahydro-4aH-chromeno[3,2-c]pyridine-4a,10-diol] | 12% |  |  |  |  | 41% | 25% | 19% |  | 
CN1CCc2oc3ccccc3c(=O)c2C1 [1a, 1,2,3,4-tetrahydro-2-methylchromeno[3,2-c]pyridin-10-one] | 15% |  |  |  |  | 29% | 34% |  | n.i. | 
CN1CC[C@@]2(O)Oc3ccccc3[C@@H](O)[C@H]2C1 (relative stereo) [7a, (4aR*,10S*,10aR*)-2-Methyl-1,2,3,4,10,10a-hexahydro-4aH-chromeno[3,2-c]pyridine-4a,10-diol] | 14% |  |  |  |  | 22% | 24% |  | n.i. | 
CCOc1cccc2c(=O)c3c(oc12)C=CN(C(C)C)C3C#Cc1ccccc1 (stereo not shown) [3d, 6-Ethoxy-2-isopropyl-1-(phenylethynyl)-1,2-dihydro-10H-chromeno[3,2-c]pyridin-10-one] | 36% |  |  |  |  | 22% |  | 10% |  | n.i.
CN1CC[C@@]2(O)Oc3ccc(Br)cc3[C@@H](O)[C@H]2C1 (relative stereo) [7c, (4aR*,10S*,10aR*)-8-Bromo-2-methyl-1,2,3,4,10,10a-hexahydro-4aH-chromeno[3,2-c]pyridine-4a,10-diol] | 21% |  |  |  |  | 35% |  | 12% |  | n.i.
CN1CC[C@@]2(O)Oc3ccc(Br)cc3[C@@H](O)[C@@H]2C1 (relative stereo) [8c, (4aR*,10S*,10aS*)-8-Bromo-2-methyl-1,2,3,4,10,10a-hexahydro-4aH-chromeno[3,2-c]pyridine-4a,10-diol] | 14% |  |  |  |  | 15% | 45% |  | n.i. | 
CCOc1cccc2c1O[C@]1(O)CCN(C)C[C@@H]1[C@@H]2O (relative stereo) [7e, (4aR*,10S*,10aR*)-6-Ethoxy-2-methyl-1,2,3,4,10,10a-hexahydro-4aH-chromeno[3,2-c]pyridine-4a,10-diol] | 19% |  |  |  |  | 25% |  |  | n.i. | n.i.
CN1CC[C@@]2(O)Oc3ccccc3[C@@H](O)[C@@H]2C1 (relative stereo) [8a, (4aR*,10S*,10aS*)-2-Methyl-1,2,3,4,10,10a-hexahydro-4aH-chromeno[3,2-c]pyridine-4a,10-diol] | 8% |  |  |  |  | 42% | 22% |  | n.i. | 
